Tests used:
Assay type in all cases: cell-based, human
HCT116 cells = experiment: β-gal positive foci in pCAROF-transfected MMR defective cells exposed to chemical mutagen; settings: 10 μM for 8 hours, 1,000 cells/plate, grown 10 days, triplicate
Description: To enhance the rate of genetic mutations and produce cells with altered genes, RNA expression, or polypeptides, the use of MMR deficiency and chemical mutagens is a powerful tool to generate such diversity. The advantages of using MMR defective cells is that the decrease of this activity renders cells more resistant to the toxic effects of such compounds yet allows for the increase in genetic and phenotypic alterations of a host organism or cell. […] Cells that are genetically defective for MMR such as but not limited to HCT116, DLD-1, etc. or cells such as those described in example 1 and 2 that are made MMR defective by ectopic expression of a dominant negative allele is covered under this invention. Briefly, MMR proficient and deficient cells are incubated with a range (1 nm to 1 mM) of chemical mutagens for 1 hour to 24 hours at 37 C at 5% CO2 in growth medium. After incubation is complete, chemical mutagens are washed from medium and cells are grown in the presence of hypoxanthine, aminopterin, and […] to score for HPRT mutant cells as previously described (Walker, V E et. al. Mutat Res. 17:371-388, 1999.) and known to those skilled in the art. […] After 14 days, the numbers of HAT-resistant colonies are determined by counting under the microscope. […] Cells were grown for 10 days and scored for β-gal activity using methods described in EXAMPLE 1. […]

[1] = tested on: HCT116 cells cotransfected with polyPNP and pC9MLH constructs; experiment: MPD killing assay, MLH1 complementation; settings: 300 μM
Description: The restoration of genetic stability and the subsequent imprint of an altered gene locus or loci is an important invention of this application for producing viable biological products, whereby altered biomolecules, cells or whole organisms with desired altered output traits are made genetically stable for long term use. To generate stable MMR defective cell lines that has or has not been exposed to chemical mutagens and selected for desired genetic changes, the introduction of a complementing MMR gene that can substitute for the mutated endogenous MMR gene locus is taught in this application. […] In this example, a mammalian expression vector is used that encodes for the functional MLH1 polypeptide (pC9MLH1) or an expression vector that encodes for a MLH1 cDNA with a premature stop codon (pC9MLHstop). These expression vectors contain a neomycin (neo) resistance gene that allows for selection of cells containing this vector. […] Cells were selected for 10 days in neo and Hyg and resistant clones were isolated and expanded. Cells were then cultured in the presence of MPD and counted for growth after 10 days. […]
For MPD killing assay, cells were plated at 2×10^4 cell/ml and 1 ml aliquots were plated in 24-well costar tissue culture dishes. […] Cells were grown for 10 days trypsinized and counted on hemocytometer using trypan blue exclusion. […]

HEK293/polyPNP cells = experiment: MPD killing assay; settings: highest concentration (300 μM), 10 days
Description: (§1) The use of cells with defective MMR repair due to defects of endogenous genes such as but not limited to the HCT116, DLD-1, and HEC-1-A cells lines (ref. 12, 25 and Kondo, et. al. J Biochem 125:818-825, 1999) can be useful for altering the genetic structure of genes to produce commercially viable variant molecules such as novel anti-microbial agents, bioactive growth factors or hormones, altered antibody structures, etc. The utility and value of such a cell is that once an altered gene structure has been produced, the integrity of this gene alteration can be preserved in the cell's genome by making the cell genetically stable via the introduction of a functional complementing MMR gene. […] The polyPNP gene encodes for a non-functional PNP gene. When the poly-A tract is randomly altered by genetic alterations due to defective MMR, the tract is randomly altered, allowing for the production of a functional PNP gene and polypeptide. PNP converts the non-toxic 9-(β-D-2-deoxy-erythro-pento-furanosyl)-6-methyl-purine prodrug (referred to as MPD) substrate to the toxic 6-methyl purine analog (referred to as MP) (Sorscher, E J, et. al. Gene Therapy 1:233-238, 1994). The polyPNP gene was engineered to contain a hemaglutinin epitope tag at the C-terminus to facilitate the detection of the encoded polypeptide via western blot analysis using an anti-HA antibody. The polyPNP gene was cloned into the pCEP4 expression vector, which has a hygromycin resistance (Hyg) gene for selection. A homologous gene called PNP was also made in which an in-frame polyA tract is cloned into the N-terminus of the gene as a positive control for PNP activity. Briefly, the MMR defective HCT116 cell line and the MMR proficient HEK293 cell line were transfected with the polyPNP, the PNP expression vector, or an empty pCEP4 vector. Cells were then selected for Hyg resistance and clones were isolated. Expanded cells were grown in the presence of increasing amounts of MPD (0, 1, 10, 50, 100, 300 μM) for 10 days. After treatment period, cells were counted by hemocytometer and trypan blue exclusion.
(§2) Cells were transfected with PNP and/or MLH1 expression vectors using liposomes following the manufacturer's protocol (Gibco/BRL). Stably transfected cell lines were generated that express empty vector, PNP or polyPNP by transfection followed by hygromycin selection. For complementation experiments, HCT116 cells were transfected with PNP/MLH1, PNP/MLH1stop, polyPNP/MLH1 or polyPNP/MLH1 stop at a 1:1 ratio using 5 μg of each plasmid and cells were selected for hygromycin and neomycin resistance. After 10 days, drug-resistant colonies were observed and picked for analysis.
(§3) For MPD killing assay, cells were plated at 2×10^4 cell/ml and 1 ml aliquots were plated in 24-well costar tissue culture dishes. For killing assays, cells were plated in 0, 1, 10, 50, 100, and 300 μM MPD in triplicate. Cells were grown for 10 days trypsinized and counted on hemocytometer using trypan blue exclusion. Data are presented as a mean+/−SD for each study.

[2] = tested on: HEK293 cells expressing PNP; experiment: MPD killing assay; settings: 50-300 μM, 10 days
Description: as §1, §2, §3

HCT116/polyPNP cells = experiment: MPD killing assay; settings: 10 days
Description: as §1, §2, §3

[3] = tested on: HCT116 cells expressing PNP; experiment: MPD killing assay; settings: 50-300 μM, 10 days
Description: as §1, §2, §3

CCOS(C)(=O)=O [EMS, ethyl methanesulfonate] was tested, and the “number of β-gal positive foci” value (HCT116 cells) was 205+/−18 per dish.

Cc1ncnc2c1ncn2[C@H]1C[C@H](O)[C@@H](CO)O1 [MPD, 9-(β-D-2-deoxyerythropentofuranosyl)-6-methyl-purine] was tested, and the “decrease in total cell growth compared to medium alone” value ([1]; cells expressing MLH1 (pC9MLH1) plus polyPNP) was 2%, the “reduction in cell growth compared to medium alone” value ([1]; cells transfected with MLHstop or empty vector and polyPNP) was 35% and the “decrease in cell growth (in words)” value (HEK293/polyPNP cells) was “no decrease in cell growth”. The growth suppression [2] was 100%, the “decrease in cell numbers” value (HCT116/polyPNP cells; 100 μM) was 20% and the “decrease in cell numbers” value (HCT116/polyPNP cells; 300 μM) was 30%. It also gave a growth suppression [3] of 100%.

Source: patent publication US20090137427A1, “Method for generating hypermutable organisms” (The John Hopkins University School of Medicine, priority 2000, published 2009)
